The subject of experiment [1] is OSA. Nature of the experiment: Acetazolamide effect on loop gain and OSA severity. The note with it: in vivo. More on the design: species or system human. The source says: Residual events after anatomical interventions can arise as an effect of elevated loop gain. […] Acetazolamide is a respiratory stimulant used in healthy adults at high-altitude (where it augments and stabilizes respiration) and has additionally been administered safely long-term for glaucoma and heart failure.

The subject of experiment [2] is OSA. To be noted: agents administered separately (N=9); cited from earlier work.

Molecules are shown by their SMILES.

With `CC(=O)Nc1nnc(S(N)(=O)=O)s1` [acetazolamide], in experiment [1], the “reduction of OSA severity (AHI)” value is recorded as approximately 50% and the “reduction of loop gain” value is reported as approximately 50%.

Take `CNCC[C@@H](Oc1ccccc1C)c1ccccc1` [atomoxetine, Atomoxetine]: the “effect on OSA severity, agents administered separately” value in experiment [2] is on record as “minimal effect”.

As for `CCN(CC)CC#CCOC(=O)C(O)(c1ccccc1)C1CCCCC1` (stereo not shown) [oxybutynin], in experiment [2], the “effect on OSA severity, agents administered separately” value is “minimal effect”.
